Assay results published in ChEMBL document CHEMBL1201862, “PubChem BioAssay data set” (2004).
Active and inactive are the calls of the source.

Assays:
[1] = inhibitors of PGC1a acetylation in cells, dose response, cell-based, cherry-picked samples (AID 720514); format: functional;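 note: potency may reflect raised or lowered acetylation signal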
[2] = biological target: T1, Mannose-6-phosphate isomerase (Homo sapiens, UniProt P34949); assay: human PMI inhibitors, high substrate, primary screen, biochemical, fluorescence intensity, high mannose 6-phosphate (AID 1220)
T1 sequence (P34949 whole entry): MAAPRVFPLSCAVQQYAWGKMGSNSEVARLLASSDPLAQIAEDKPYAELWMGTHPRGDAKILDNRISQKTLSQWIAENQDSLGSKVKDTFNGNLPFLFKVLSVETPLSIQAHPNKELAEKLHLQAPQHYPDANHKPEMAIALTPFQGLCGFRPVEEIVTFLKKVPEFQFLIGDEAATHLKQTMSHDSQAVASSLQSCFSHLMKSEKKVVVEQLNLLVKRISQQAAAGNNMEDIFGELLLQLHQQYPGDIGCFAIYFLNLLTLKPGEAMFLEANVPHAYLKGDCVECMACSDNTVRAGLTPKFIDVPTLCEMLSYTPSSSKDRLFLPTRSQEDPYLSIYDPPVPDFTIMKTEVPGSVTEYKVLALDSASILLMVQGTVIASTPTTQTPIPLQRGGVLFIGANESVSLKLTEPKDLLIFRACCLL

[3] = biological target: DNA damage-inducible transcript 3 protein (Mus musculus, UniProt P35639); format: functional, Cricetulus griseus
Chain of DNA damage-inducible transcript 3 protein (P35639 whole entry): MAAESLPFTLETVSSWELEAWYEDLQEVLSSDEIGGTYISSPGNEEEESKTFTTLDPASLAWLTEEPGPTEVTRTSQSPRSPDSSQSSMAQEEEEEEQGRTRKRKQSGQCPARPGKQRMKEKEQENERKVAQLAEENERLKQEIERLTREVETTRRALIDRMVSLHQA

SUMO-activating enzyme = SUMO-activating enzyme (Homo sapiens, UniProt Q9UBT2); assay: SUMOylation inhibitor hit validation, confirmation, SUMOylation inhibitor project, biochemical, AlphaScreen (AID 2018); format: functional
Chain of SUMO-activating enzyme (Q9UBE0 whole entry): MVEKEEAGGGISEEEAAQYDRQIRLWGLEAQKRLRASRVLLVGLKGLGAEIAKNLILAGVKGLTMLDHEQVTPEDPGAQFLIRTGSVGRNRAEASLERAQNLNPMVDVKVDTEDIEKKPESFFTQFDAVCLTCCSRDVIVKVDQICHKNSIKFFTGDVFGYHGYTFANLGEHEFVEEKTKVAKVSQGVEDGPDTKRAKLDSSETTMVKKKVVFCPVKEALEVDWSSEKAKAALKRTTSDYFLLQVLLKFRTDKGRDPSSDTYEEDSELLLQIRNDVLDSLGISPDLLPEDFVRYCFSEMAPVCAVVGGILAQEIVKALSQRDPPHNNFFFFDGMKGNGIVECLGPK
Chain of SUMO-activating enzyme (Q9UBT2 whole entry): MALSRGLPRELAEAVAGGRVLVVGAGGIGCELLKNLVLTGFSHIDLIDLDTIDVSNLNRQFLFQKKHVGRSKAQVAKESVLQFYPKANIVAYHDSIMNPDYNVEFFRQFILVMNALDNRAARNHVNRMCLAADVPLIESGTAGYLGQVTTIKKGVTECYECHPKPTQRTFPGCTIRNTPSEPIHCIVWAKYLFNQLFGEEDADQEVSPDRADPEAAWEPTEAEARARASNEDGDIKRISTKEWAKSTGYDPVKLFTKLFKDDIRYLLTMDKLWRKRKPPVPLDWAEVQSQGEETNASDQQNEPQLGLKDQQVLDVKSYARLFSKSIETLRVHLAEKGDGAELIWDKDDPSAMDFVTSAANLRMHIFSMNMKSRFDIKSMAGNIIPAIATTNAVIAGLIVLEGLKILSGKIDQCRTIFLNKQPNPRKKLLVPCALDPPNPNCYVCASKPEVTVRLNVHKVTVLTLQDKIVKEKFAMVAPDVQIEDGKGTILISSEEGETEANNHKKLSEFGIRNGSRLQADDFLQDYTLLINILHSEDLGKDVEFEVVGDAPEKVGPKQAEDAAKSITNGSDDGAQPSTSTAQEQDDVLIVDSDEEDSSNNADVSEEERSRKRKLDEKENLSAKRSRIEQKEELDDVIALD

[4] = biological target: T1, Mannose-6-phosphate isomerase; assay: inhibitors of human PMI, primary screen, biochemical, fluorescence intensity, coupled assay (AID 1209)
Protein Tat = Protein Tat (Human immunodeficiency virus type 1 group M subtype B (isolate HXB2)(HIV-1), UniProt P04608); format: functional;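 note: tat binding to TAR RNA read out by fluorescence polarization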
Chain of Protein Tat (P04608 whole entry): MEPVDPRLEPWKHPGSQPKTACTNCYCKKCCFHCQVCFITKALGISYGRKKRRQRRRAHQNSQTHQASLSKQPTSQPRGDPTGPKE

[5] = Luminescence Cell-Based Dose Confirmation HTS to Identify Inhibitors of Platelet Dense Granule Release. [Related pubchem assays: 1663 (Primary HTS), 1678 (Summary of Project)]; format: functional
[6] = MC4R antagonists, dose response, counter-screen for LGR2 antagonist project, cell-based, plate reader, cherry pick (AID 743444); format: functional;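 note: transfected HEK 293 cells stimulated with alpha-MSH peptide; potency of inhibitors of the alpha-MSH evoked signal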
cells = format: functional, cell-based
[7] = luciferase reporter signal reduction – luminescence, H4-C neuroglioblastoma cells, dose response (AID 2458); format: functional, cell-based;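 note: H4 neuroglioblastoma cells stably carrying a luciferase reporter gene fusion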
[8] = inhibitors of SNCA 5'UTR-driven reporter translation, confirmation, H4 neuroglioma cells, luminescence (AID 1988); format: functional, cell-based
[9] = A549 cell cytotoxicity, dose response, cytotoxicity control, plate reader, cherry-pick, antagonist series (AID 743412); format: functional, cell-based
[10] = HEK293 cell cytotoxicity, dose response, cytotoxicity control, plate reader, cherry-picked samples (AID 743446); format: functional, cell-based
[11] = inhibitors of SNCA 5'UTR-driven translation, confirmation, luminescence, H4 neuroglioblastoma cells, dose confirmation (AID 2454); format: functional, cell-based;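 note: H4 neuroglioblastoma cells carrying an alpha-synuclein 5'UTR luciferase reporter; potency for inhibition of the luciferase signal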
[12] = HepG2 cell cytotoxicity, dose response, cytotoxicity control, plate reader, cherry-pick, antagonist series (AID 743416); format: functional, cell-based
[13] = biological target: Luciferin 4-monooxygenase (Photinus pyralis, UniProt P08659); assay: firefly luciferase enzyme inhibitors, dose response, biochemical, luminescence (AID 1891)
Chain of Luciferin 4-monooxygenase (P08659 whole entry): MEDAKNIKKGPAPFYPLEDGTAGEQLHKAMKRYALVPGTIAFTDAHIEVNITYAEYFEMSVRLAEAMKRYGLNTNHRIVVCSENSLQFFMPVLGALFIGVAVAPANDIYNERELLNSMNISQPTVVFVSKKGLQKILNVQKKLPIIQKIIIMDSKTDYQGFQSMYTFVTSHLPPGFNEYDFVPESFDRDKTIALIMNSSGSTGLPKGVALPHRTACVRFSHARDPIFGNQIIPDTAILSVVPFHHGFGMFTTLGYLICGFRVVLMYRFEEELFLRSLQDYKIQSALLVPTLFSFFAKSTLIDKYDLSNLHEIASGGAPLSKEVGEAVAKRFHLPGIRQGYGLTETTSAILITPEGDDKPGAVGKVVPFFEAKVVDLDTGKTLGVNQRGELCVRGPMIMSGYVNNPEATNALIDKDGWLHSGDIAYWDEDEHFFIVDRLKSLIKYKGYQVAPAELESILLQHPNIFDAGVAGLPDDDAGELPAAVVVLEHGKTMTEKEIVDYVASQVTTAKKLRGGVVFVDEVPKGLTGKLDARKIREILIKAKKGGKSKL

[14] = Luminescence-based counterscreen assay for KLF5 inhibitors: dose response cell-based high throughput screening assay to identify cytotoxic compounds using the IEC-6 intestinal epithelial cell line. [Related pubchem assays: 1700 (Primary screen.), 1834 (Confirmation screen.), 1858 (Summary AID.), 1905 (Counterscreen.)]; format: functional
[15] = biological target: T2, Heat shock factor protein 1 (Mus musculus, UniProt P38532); assay: inhibition of MG132-induced HSE-luciferase signal, confirmation, cell-based, NIH3T3, luminescence, dose retest (AID 2382); format: functional;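 note: NIH3T3 fibroblasts with HSF1-driven luciferase reporter stressed by proteasome inhibitor MG132; luminescence from HSF1-driven luciferase expression after 8 hours of MG132 stress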
T2 sequence (P38532 whole entry): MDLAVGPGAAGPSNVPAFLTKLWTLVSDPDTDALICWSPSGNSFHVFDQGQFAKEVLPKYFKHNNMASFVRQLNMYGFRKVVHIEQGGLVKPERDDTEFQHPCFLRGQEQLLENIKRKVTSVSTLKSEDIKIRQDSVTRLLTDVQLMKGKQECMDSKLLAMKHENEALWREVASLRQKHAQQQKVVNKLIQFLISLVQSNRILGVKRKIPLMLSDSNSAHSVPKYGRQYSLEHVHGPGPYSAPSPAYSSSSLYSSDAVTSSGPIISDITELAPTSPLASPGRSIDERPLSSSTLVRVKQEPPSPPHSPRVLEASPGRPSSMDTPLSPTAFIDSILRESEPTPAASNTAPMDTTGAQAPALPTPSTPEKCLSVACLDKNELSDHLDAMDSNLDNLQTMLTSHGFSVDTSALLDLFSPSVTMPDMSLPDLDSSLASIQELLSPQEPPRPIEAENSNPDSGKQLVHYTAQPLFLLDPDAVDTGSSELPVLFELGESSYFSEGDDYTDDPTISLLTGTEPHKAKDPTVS

[16] = inhibitors of firefly luciferase expression or activity, dose response, H4 neuroglioma cells, luminescence (AID 1990); format: functional, cell-based
[17] = Luminescence Cell-Based Dose Response HTS to Identify Inhibitors of 5'UTR Stem-Loop Driven Prion Protein mRNA Translation in H4 Neuroglioblastoma Cells. [Related pubchem assays: 1827 (Project Summary), 1813 (Primary HTS)]; format: functional
[18] = LGR2 antagonists, dose response, cell-based, HEK293, CRE-luciferase reporter, cherry pick, set 2 (AID 743343); format: functional;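 note: transfected cells were stimulated with diluted bursicon conditioned medium after compound addition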
[19] = biological target: Disintegrin and metalloproteinase domain-containing protein 17 (Homo sapiens, UniProt P78536); assay: ADAM17 protease inhibitors, dose response, counter-screen for ADAM10 exosite inhibitor project, biochemical, quenched FRET substrate (AID 743253)
Chain of Disintegrin and metalloproteinase domain-containing protein 17 (P78536 whole entry, the tested form may be a part): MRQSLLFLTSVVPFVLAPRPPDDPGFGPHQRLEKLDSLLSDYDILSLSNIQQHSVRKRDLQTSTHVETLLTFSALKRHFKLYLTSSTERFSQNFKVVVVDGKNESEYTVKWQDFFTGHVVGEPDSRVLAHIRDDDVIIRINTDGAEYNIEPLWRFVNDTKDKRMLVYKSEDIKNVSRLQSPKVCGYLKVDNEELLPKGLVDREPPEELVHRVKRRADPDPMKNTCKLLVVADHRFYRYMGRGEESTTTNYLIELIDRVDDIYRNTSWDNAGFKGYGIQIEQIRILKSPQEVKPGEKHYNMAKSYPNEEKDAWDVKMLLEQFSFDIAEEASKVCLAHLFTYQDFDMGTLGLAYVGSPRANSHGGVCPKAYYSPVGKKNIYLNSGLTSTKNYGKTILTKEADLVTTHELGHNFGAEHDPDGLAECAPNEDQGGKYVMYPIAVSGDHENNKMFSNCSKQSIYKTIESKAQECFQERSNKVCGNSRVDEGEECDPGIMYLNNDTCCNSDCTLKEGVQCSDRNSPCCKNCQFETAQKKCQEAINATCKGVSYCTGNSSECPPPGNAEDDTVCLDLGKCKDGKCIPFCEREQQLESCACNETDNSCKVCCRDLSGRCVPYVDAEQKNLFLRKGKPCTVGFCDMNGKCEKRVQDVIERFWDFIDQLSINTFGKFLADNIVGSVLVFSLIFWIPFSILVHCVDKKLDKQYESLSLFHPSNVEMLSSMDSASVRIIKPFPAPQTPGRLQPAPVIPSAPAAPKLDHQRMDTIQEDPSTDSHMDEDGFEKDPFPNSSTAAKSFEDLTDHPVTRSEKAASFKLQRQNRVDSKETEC

[20] = ADAM10 inhibitors, peptide cleavage, dose response, biochemical, QFRET (AID 743254);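 note: ADAM10 enzyme with the DM2 quenched FRET peptide as substrate; EDANS fluorescence gain as the protease cuts the substrate; inhibitor potency against ADAM10 proteolytic activity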
Paired box protein Pax-8 = Paired box protein Pax-8 (Homo sapiens, UniProt Q06710); assay: inhibitors of PAX8-driven TPO luciferase reporter, dose response, RMG-I cells, cherry-pick (AID 687027); format: functional, cell-based;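 note: luciferase reporter driven by Pax8 target thyroperoxidase promoter measured by SteadyGlo luminescence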
Chain of Paired box protein Pax-8 (Q06710 whole entry): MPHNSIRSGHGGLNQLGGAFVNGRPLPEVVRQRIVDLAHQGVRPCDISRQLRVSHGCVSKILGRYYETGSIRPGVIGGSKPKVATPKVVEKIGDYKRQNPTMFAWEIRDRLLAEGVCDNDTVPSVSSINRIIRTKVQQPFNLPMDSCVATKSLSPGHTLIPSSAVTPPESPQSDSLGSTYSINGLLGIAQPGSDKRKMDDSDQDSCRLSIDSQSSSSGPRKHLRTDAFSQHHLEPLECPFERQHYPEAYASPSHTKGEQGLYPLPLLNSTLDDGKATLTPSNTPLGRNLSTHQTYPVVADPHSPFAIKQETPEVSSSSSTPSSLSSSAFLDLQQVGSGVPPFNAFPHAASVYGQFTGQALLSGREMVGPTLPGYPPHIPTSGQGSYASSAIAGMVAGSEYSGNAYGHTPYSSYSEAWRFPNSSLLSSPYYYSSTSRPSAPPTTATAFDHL

[21] = HEK293T cytotoxicity, dose response, cytotoxicity control for miR-122 modulator project, cell-based, activator set, cherry-pick (AID 720690); format: functional;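 note: HEK293T human cells scored for general mammalian cytotoxicity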
[22] = non-specific cell cytotoxicity, dose response, cytotoxicity control for PAX8 inhibitor project, plate reader, dry powder samples (AID 743021); format: functional, cell-based
[23] = HEK293T cytotoxicity, dose response, cytotoxicity control for miR-122 modulator project, cell-based, inhibitor set, cherry-pick, set 2 (AID 720697); format: functional
Vero = assay: cells; format: functional; conditions: Chlorocebus sabaeus
[24] = miR-122 activators in hepatoma reporter cells, dose response, cell-based, Huh7 psiCHECK-miR122, Renilla luciferase, cherry-picked (AID 651956); format: functional;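 note: huh7 hepatoma cells stably carrying a psiCHECK-2 miR-122 sensor plasmid; renilla luciferase signal reporting endogenous miR-122 activity after 48 h compound exposure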
Troponin, cardiac muscle = Troponin, cardiac muscle (Homo sapiens, UniProt P19429+P45379+P63316); assay: Fluorescence-based biochemical high throughput dose response assay for activators of the calcium sensitivity of cardiac Regulated Thin Filaments (RTF). [Related pubchem assays (depositor defined):AID493008, AID493018, AID504382, AID504383]; format: protein-complex assay
[25] = biological target: COUP transcription factor 2 (Homo sapiens, UniProt P24468); assay: Luminescence-based cell-based high throughput dose response assay to identify inhibitors of COUP-TFII (NR2F2).; format: functional;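 note: HEK293 cells transiently cotransfected with COUP-TFII expression vector and reporter; luciferase reporter luminescence driven by COUP-TFII from the pX2-168 reporter plasmid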
Chain of COUP transcription factor 2 (P24468 whole entry): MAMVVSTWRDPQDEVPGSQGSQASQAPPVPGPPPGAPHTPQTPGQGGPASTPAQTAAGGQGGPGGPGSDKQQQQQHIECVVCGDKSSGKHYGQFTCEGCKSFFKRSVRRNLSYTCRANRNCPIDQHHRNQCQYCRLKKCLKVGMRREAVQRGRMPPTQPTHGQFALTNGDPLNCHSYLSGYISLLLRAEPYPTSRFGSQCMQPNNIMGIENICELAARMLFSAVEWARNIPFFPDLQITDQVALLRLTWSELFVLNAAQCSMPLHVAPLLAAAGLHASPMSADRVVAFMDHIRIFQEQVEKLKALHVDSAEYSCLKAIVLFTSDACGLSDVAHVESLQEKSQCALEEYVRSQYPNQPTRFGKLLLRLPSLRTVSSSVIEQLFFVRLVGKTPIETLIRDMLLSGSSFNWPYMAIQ

For `CC(=O)c1ccc(Nc2cc(C)nc3ccc(C)cc23)cc1`, which AC50 [1] is on record?
Its AC50 is 6.09 µM (active).

For `CC1=Nc2nc3c(c4c(C#N)c(N5CCCCC5)nc(c24)N1)CC(=O)N3c1ccc(C(C)C)cc1.CN(C)C=O`, which IC50 [2] is on record?
Its IC50 is > 50 µM (not active).

What about the “Absolute IC50 (CHOP)” value [3] of the same molecule?
The value was 10 µM.

What about the IC50 (SUMO-activating enzyme) of the same molecule?
Its IC50 is 11.7 µM (active).

What about the IC50 [4] of the same molecule?
Its IC50 is > 50 µM (not active).

What about the IC50 (Protein Tat) of the same molecule?
The IC50 was > 100 µM (active).

Which results are given for `CCCS(=O)(=O)c1cnc(C2COc3ccccc3O2)nc1N` (configuration not stated)?
EC50 [5]: 3.05 µM (active); AC50 [6]: 1.2 µM (active); EC50 (cells): > 12 µM (inconclusive); EC50 [7]: 0.862 µM (active); EC50 [8]: < 0.1 µM (active); AC50 [9]: 34.2 µM (active); AC50 [10]: 26.6 µM (active); EC50 [11]: 1.06 µM (active); AC50 [12]: 40.1 µM (active); EC50 [13]: 14.4 µM (active); IC50 [14]: > 39.8 µM (not active); EC50 [15]: < 0.16 µM (active); EC50 [16]: 0.197 µM (active); EC50 [17]: 0.132 µM (active); AC50 [18]: 1.45 µM (active)

Which IC50 [19] does the source give for `Oc1ccc(C[C@H]2CNC(=S)N2CC2CCCN2C[C@H](Cc2ccccc2)N2C[C@H](Cc3ccc(O)cc3)N(CC3CCCCC3)C2=S)cc1` (some centres not stated) here?
Its IC50 is > 69.5 µM (inactive).

And the IC50 [20]?
Its IC50 is 7.86 µM (active).

For `Cn1ncc2c(ON=C(N)c3ccc(C(F)(F)F)cc3)ncnc21`, which AC50 (Paired box protein Pax-8) is on record?
Its AC50 is 6.71 µM (active).

And the AC50 [21]?
The AC50 was 14 µM (active).

And the AC50 [22]?
Its AC50 is 66.7 µM (active).

What about the AC50 [1] of the same molecule?
Its AC50 is 4.71 µM (active).

What about the AC50 [23] of the same molecule?
Its AC50 is 9.49 µM (active).

What about the CC50 (Vero) of the same molecule?
The CC50 was 8.98 µM (active).

What about the AC50 [24] of the same molecule?
The AC50 was 20.8 µM (active).

What about the EC50 (Troponin, cardiac muscle) of the same molecule?
Its EC50 is > 71.5 µM (inactive).

With `COc1ccc(C(=O)C2CCN(c3ncnc4sccc34)CC2)cc1` as the molecule, how does the IC50 [25] read?
Its IC50 is 1.77 µM (active).
